The numbers were not newly measured in patent US20230338288A1, “ASYMMETRIC CHARGED VESICLES AND METHODS OF PREPARING AND USE THEREOF” (The Research Foundation for the State University of New York, priority 2020, published 2023), which cites them from elsewhere.

The conditions of this series: compared with Doxil (liposome-encapsulated Dox).

For `COc1cccc2c1C(=O)c1c(O)c3c(c(O)c1C2=O)C[C@@](O)(C(=O)CO)C[C@@H]3O[C@H]1C[C@H](N)[C@H](O)[C@H](C)O1` [Dox, Doxorubicin], the “dose that can be delivered without exhibiting cardiotoxicity, fold less than with Doxil” value is listed as 10-50 fold.
